Experimental data reported in patent US10919884B2, “Amide compounds for treatment of immune and inflammatory disorders” (Achillion Pharmaceuticals, Inc., priority 2015, dated 2021).
pIC50: −log10 of the molar value.

Molecular target: Human Factor D (Homo sapiens (Human), UniProt P00746)
Test: Human Factor D Assay
Type: biochemical
Details: Human Factor D purified from human serum, 80 nM; substrate Z-L-Lys-SBzl and DTNB 100 μM each; assay of Example 12
Procedure: Example 12. Human Factor D Assay
Human Factor D (purified from human serum, Complement Technology, Inc.) at 80 nM final concentration is incubated with test compound at various concentrations for 5 minutes at room temperature in 50 mM Tris, 1 M NaCl, pH 7.5. A synthetic substrate Z-L-Lys-SBzl and DTNB (Ellman's reagent) are added to final concentrations of 100 μM each. Absorbance at 405 nm (A405) is recorded at 30 second intervals for 30 minutes using a microplate spectrophotometer. IC50 values are calculated by nonlinear regression of complement Factor D reaction rates as a function of test compound concentration.
The assay of Example 12 was used to determine the IC50's of the compounds. Other standard Factor D inhibition assays are also available.

Chain of Human Factor D (P00746 26-253): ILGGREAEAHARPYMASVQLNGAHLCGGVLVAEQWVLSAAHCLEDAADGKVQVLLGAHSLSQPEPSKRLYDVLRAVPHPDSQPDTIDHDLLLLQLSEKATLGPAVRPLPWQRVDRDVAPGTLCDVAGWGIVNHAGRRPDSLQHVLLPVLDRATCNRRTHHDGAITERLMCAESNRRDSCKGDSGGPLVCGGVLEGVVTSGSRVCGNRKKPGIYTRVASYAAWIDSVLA

SMILES | pIC50
Cc1cccc(NC(=O)[C@@H]2CC=CCN2C(=O)Cn2cc(C(N)=O)c3cc(NC(=O)N4CCCC(F)(F)C4)ccc32)n1 [Compound 1, (S)-5-(3,3-difluoropiperidine-1-carboxamido)-1-(2-(6-((6-methylpyridin-2-yl)carbamoyl)-5,6-dihydropyridin-1(2H)-yl)-2-oxoethyl)-1H-indole-3-carboxamide] | < 5.00
Cc1cccc(C[C@@H](O)[C@H]2C[C@@H](F)CN2C(=O)Cn2cc(C(N)=O)c3cc(NC(=O)N4CCCC(F)(F)C4)ccc32)n1 [Compound 2, 5-(3,3-difluoropiperidine-1-carboxamido)-1-(2-((2R,4R)-4-fluoro-2-((R)-1-hydroxy-2-(6-methylpyridin-2-yl)ethyl)pyrrolidin-1-yl)-2-oxoethyl)-1H-indole-3-carboxamide] | < 5.00
Cc1cccc(C[C@H](O)[C@@H]2C[C@@H](F)CN2C(=O)Cn2cc(C(N)=O)c3cc(NC(=O)N4CCCC(F)(F)C4)ccc32)n1 [Compound 3, 5-(3,3-difluoropiperidine-1-carboxamido)-1-(2-((2S,4R)-4-fluoro-2-((S)-1-hydroxy-2-(6-methylpyridin-2-yl)ethyl)pyrrolidin-1-yl)-2-oxoethyl)-1H-indole-3-carboxamide] | < 5.00
Cc1cccc(NC(=O)[C@@H]2CCC(F)CCN2C(=O)Cn2cc(C(N)=O)c3cc(NC(=O)N4CCCC(F)(F)C4)ccc32)n1 (stereo partly drawn) [Compound 4, 5-(3,3-difluoropiperidine-1-carboxamido)-1-(2-((2S)-5-fluoro-2-((6-methylpyridin-2-yl)carbamoyl)azepan-1-yl)-2-oxoethyl)-1H-indole-3-carboxamide] | < 5.00
Cc1cccc(NC(=O)[C@@H]2CC=CCN2C(=O)Cn2cc(C(N)=O)c3cc(C(=O)NS(=O)(=O)C4CC4)ccc32)n1 [Compound 5, (S)-N5-(cyclopropylsulfonyl)-1-(2-(6-((6-methylpyridin-2-yl)carbamoyl)-5,6-dihydropyridin-1(2H)-yl)-2-oxoethyl)-1H-indole-3,5-dicarboxamide] | < 5.00
